Measured values: US11779594B2, “Compositions for the treatment of epithelial lesions” (INTERNATIONAL HEALTH SCIENCE S.R.L., priority 2019, dated 2023)

Tested on: COLO-680N esophagus cells
Experiment: scratch wound healing of COLO-680N esophagus cell monolayer irritated with BSC medium
Assay type: cell-based, human
Conditions: COLO-680N cells treated with BSC; vs placebo, P<0.05 (FIG. 5)
Procedure: The adhesive, barrier, soothing and repairing effects of a composition of the invention was studied in different experimental models of esophageal epithelial cells (i.e. CP-A and COLO-680N) by simulating in vitro the damage induced by gastric content on the esophagus.
To this aim, we incubated the cell monolayer with a medium (named BSC) containing bile salts cocktail, pepsin and pH 2.5 (thus simulating the gastric juice).
The significant repairing effect was assessed as described in FIG. 1-5. Confluent monolayers of COLO-680N esophagus cells, cultured in a 24 well plate, were scraped with a pipette tip and, after washing twice with PBS, were incubated with BSC (irritant medium simulating the gastro-intestinal juice) or culture medium alone as a negative control. […] Wound closure (healing) was evaluated up to 24 h under a Leica DMIL inverted microscope (Leica Microsystem) and images were collected using a Canon Powershot A640 digital camera (Canon). The cellular movements, distance and cell number were used for quantitative evaluations. The images were analyzed by ImaJ software. Results were analyzed by statistical method for assessing the significance compared to both controls and single component of the invention; the differences were considered significant for p<0.05 (FIG. 5).

sodium hyaluronate [HA]
quantified wound healing effect (number of cells, movements, distance covered): do not exert wound healing effect
